Assay results from the supplement of paper PMC11208160.

Test: recombinant UMI read abundance after kanamycin selection (control-corrected) (log10(CPM+1)); higher = more efficient recombination; extreme values may be limits of the assay; sequences stand for … in AGTGCAGAGAAAATCGGCCAGTTTTCTCTGCCTGCAGTCCGCATGCCGTGGGACCCCTTGGGTTCTAACCTGTTGCCTAGATTTATGCAGCGGACTGCCTTTCTCCCAAAGTGATAAACCGG…AGGTTGGTTTCACT; site = the 11-nt donor
Method in brief: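 Sequenced counts of recombinant UMIs were turned into CPM, averaged across replicates and scaled with control-derived factors. The reported figure is log10(CPM+1). Those UMIs, each 12 nt long, tagged donor and donor-binding-loop pairs on a plasmid with a promoterless kanamycin gene, screened as a pool in Escherichia coli with IPTG (0.07 mM) plus kanamycin or without selection.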
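Note: IS621 bridge recombinase in Escherichia coli cells against a fixed T5 target plasmid.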

Sequence | recombinant UMI read abundance (log10)
TACTTGGCATGGACCGGTTTTCCCGGTAATCCGTATTTGGA (site TACTTGGCTTC) | 0.216
TACTTGTCATGGACCGGTTTTCCCGGTAATCCGTATTTGGG (site TACTTGTCTCC) | 0.17
TACTTTACATGGACCGGTTTTCCCGGTAATCCGTATTTGCT (site TACTTAACTAG) | 0
TACTTTACATGGACCGGTTTTCCCGGTAATCCGTATTTGCT (site TACTTCACTAG) | 1.36
TACTTTACATGGACCGGTTTTCCCGGTAATCCGTATTTGCT (site TACTTGACTAG) | 0.00292
TACTTTACATGGACCGGTTTTCCCGGTAATCCGTATTTGCT (site TACTTTACTAG) | 1.01
TAGAATACATGGACCGGTTTTCCCGGTAATCCGTATTTGGA (site TAGAATACTTA) | 0.00272
TAGAATACATGGACCGGTTTTCCCGGTAATCCGTATTTGGA (site TAGAATACTTC) | 1.99
TAGAATACATGGACCGGTTTTCCCGGTAATCCGTATTTGGA (site TAGAATACTTG) | 0
TAGAATACATGGACCGGTTTTCCCGGTAATCCGTATTTGGA (site TAGAATACTTT) | 0.731
TAGACAACATGGACCGGTTTTCCCGGTAATCCGTATTTGAG (site TAGACAACTCT) | 0.821
TAGAGCGCATGGACCGGTTTTCCCGGTAATCCGTATTTGTG (site TAGAGCGCTCA) | 1.05
TAGAGTACATGGACCGGTTTTCCCGGTAATCCGTATTTGCA (site TAGAATACTTG) | 1.37
TAGAGTACATGGACCGGTTTTCCCGGTAATCCGTATTTGCA (site TAGACTACTTG) | 0.88
TAGAGTACATGGACCGGTTTTCCCGGTAATCCGTATTTGCA (site TAGAGTACTTG) | 2.08
TAGAGTACATGGACCGGTTTTCCCGGTAATCCGTATTTGCA (site TAGATTACTTG) | 0
TAGATAACATGGACCGGTTTTCCCGGTAATCCGTATTTGTG (site TAGATAACTCA) | 1.2
TAGATAGCATGGACCGGTTTTCCCGGTAATCCGTATTTGAA (site TAGATAGCTTT) | 2.07
TAGATAGCATGGACCGGTTTTCCCGGTAATCCGTATTTGAA (site TAGCTAGCTTT) | 0.0111
TAGATAGCATGGACCGGTTTTCCCGGTAATCCGTATTTGAA (site TAGGTAGCTTT) | 0.0819
TAGATAGCATGGACCGGTTTTCCCGGTAATCCGTATTTGAA (site TAGTTAGCTTT) | 0.173
TAGCACGCATGGACCGGTTTTCCCGGTAATCCGTATTTGGG (site AAGCACGCTCC) | 0.0104
TAGCACGCATGGACCGGTTTTCCCGGTAATCCGTATTTGGG (site CAGCACGCTCC) | 0.00759
TAGCACGCATGGACCGGTTTTCCCGGTAATCCGTATTTGGG (site GAGCACGCTCC) | 0.0209
TAGCACGCATGGACCGGTTTTCCCGGTAATCCGTATTTGGG (site TAGCACGCTCC) | 0.0358

Sequence | recombinant UMI read abundance (log10)
TAGCCGTCATGGACCGGTTTTCCCGGTAATCCGTATTTGGT (site TAGCCATCTAC) | 0.764
TAGCCGTCATGGACCGGTTTTCCCGGTAATCCGTATTTGGT (site TAGCCCTCTAC) | 0
TAGCCGTCATGGACCGGTTTTCCCGGTAATCCGTATTTGGT (site TAGCCGTCTAC) | 0.776
TAGCCGTCATGGACCGGTTTTCCCGGTAATCCGTATTTGGT (site TAGCCTTCTAC) | 0.013
TAGCCTTCATGGACCGGTTTTCCCGGTAATCCGTATTTGGA (site TAGCCTTCTAC) | 0.0179
TAGCCTTCATGGACCGGTTTTCCCGGTAATCCGTATTTGGA (site TAGCCTTCTCC) | 0.02
TAGCCTTCATGGACCGGTTTTCCCGGTAATCCGTATTTGGA (site TAGCCTTCTGC) | 0
TAGCCTTCATGGACCGGTTTTCCCGGTAATCCGTATTTGGA (site TAGCCTTCTTC) | 0.00303
TAGCCTTCATGGACCGGTTTTCCCGGTAATCCGTATTTGGG (site TAGCCTTCTAC) | 0
TAGCCTTCATGGACCGGTTTTCCCGGTAATCCGTATTTGGG (site TAGCCTTCTCC) | 0.0175
TAGCCTTCATGGACCGGTTTTCCCGGTAATCCGTATTTGGG (site TAGCCTTCTGC) | 0
TAGCCTTCATGGACCGGTTTTCCCGGTAATCCGTATTTGGG (site TAGCCTTCTTC) | 0.0097
TAGCGAACATGGACCGGTTTTCCCGGTAATCCGTATTTGGA (site TAGCGAACTTC) | 1.05
TAGCGAGCATGGACCGGTTTTCCCGGTAATCCGTATTTGAA (site TAGCAAGCTTT) | 1.3
TAGCGAGCATGGACCGGTTTTCCCGGTAATCCGTATTTGAA (site TAGCCAGCTTT) | 0.0145
TAGCGAGCATGGACCGGTTTTCCCGGTAATCCGTATTTGAA (site TAGCGAGCTTT) | 1.41
TAGCGAGCATGGACCGGTTTTCCCGGTAATCCGTATTTGAA (site TAGCTAGCTTT) | 0.00707
TAGCGAGCATGGACCGGTTTTCCCGGTAATCCGTATTTGTA (site TAGCGAGCTTA) | 1.82
TAGCGGCCATGGACCGGTTTTCCCGGTAATCCGTATTTGAA (site TAGCGGCCTTT) | 0.205
TAGCGTACATGGACCGGTTTTCCCGGTAATCCGTATTTGTA (site TAGCGTACTTA) | 1.2
TAGCTAACATGGACCGGTTTTCCCGGTAATCCGTATTTGAA (site TAGCTAACTTT) | 1.09
TAGCTAACATGGACCGGTTTTCCCGGTAATCCGTATTTGAA (site TAGCTACCTTT) | 0.00585
TAGCTAACATGGACCGGTTTTCCCGGTAATCCGTATTTGAA (site TAGCTAGCTTT) | 0.00737
TAGCTAACATGGACCGGTTTTCCCGGTAATCCGTATTTGAA (site TAGCTATCTTT) | 0.429
TAGCTACCATGGACCGGTTTTCCCGGTAATCCGTATTTGAA (site TAGCTAACTTT) | 0.00682

Sequence | recombinant UMI read abundance (log10)
TAGCTACCATGGACCGGTTTTCCCGGTAATCCGTATTTGAA (site TAGCTACCTTT) | 0.00616
TAGCTACCATGGACCGGTTTTCCCGGTAATCCGTATTTGAA (site TAGCTAGCTTT) | 0.00385
TAGCTACCATGGACCGGTTTTCCCGGTAATCCGTATTTGAA (site TAGCTATCTTT) | 0.784
TAGCTATCATGGACCGGTTTTCCCGGTAATCCGTATTTGAA (site TAGCTAACTTT) | 0.00325
TAGCTATCATGGACCGGTTTTCCCGGTAATCCGTATTTGAA (site TAGCTACCTTT) | 0.0124
TAGCTATCATGGACCGGTTTTCCCGGTAATCCGTATTTGAA (site TAGCTAGCTTT) | 0.00959
TAGCTATCATGGACCGGTTTTCCCGGTAATCCGTATTTGAA (site TAGCTATCTTT) | 2.02
TAGCTCACATGGACCGGTTTTCCCGGTAATCCGTATTTGAT (site AAGCTCACTAT) | 0.00391
TAGCTCACATGGACCGGTTTTCCCGGTAATCCGTATTTGAT (site CAGCTCACTAT) | 0.61
TAGCTCACATGGACCGGTTTTCCCGGTAATCCGTATTTGAT (site GAGCTCACTAT) | 0.0104
TAGCTCACATGGACCGGTTTTCCCGGTAATCCGTATTTGAT (site TAGCTCACTAT) | 1.47
TAGGAATCATGGACCGGTTTTCCCGGTAATCCGTATTTGGG (site TAGGAATCTCA) | 0.407
TAGGAATCATGGACCGGTTTTCCCGGTAATCCGTATTTGGG (site TAGGAATCTCC) | 1.79
TAGGAATCATGGACCGGTTTTCCCGGTAATCCGTATTTGGG (site TAGGAATCTCG) | 0
TAGGAATCATGGACCGGTTTTCCCGGTAATCCGTATTTGGG (site TAGGAATCTCT) | 0.56
TAGGATACATGGACCGGTTTTCCCGGTAATCCGTATTTGCA (site TAGAATACTTG) | 1.71
TAGGATACATGGACCGGTTTTCCCGGTAATCCGTATTTGCA (site TAGCATACTTG) | 0.852
TAGGATACATGGACCGGTTTTCCCGGTAATCCGTATTTGCA (site TAGGATACTTG) | 3.06
TAGGATACATGGACCGGTTTTCCCGGTAATCCGTATTTGCA (site TAGTATACTTG) | 1.44
TAGGATTCATGGACCGGTTTTCCCGGTAATCCGTATTTGCG (site TAGGAATCTCG) | 1.73
TAGGATTCATGGACCGGTTTTCCCGGTAATCCGTATTTGCG (site TAGGACTCTCG) | 1.68
TAGGATTCATGGACCGGTTTTCCCGGTAATCCGTATTTGCG (site TAGGAGTCTCG) | 0.435
TAGGATTCATGGACCGGTTTTCCCGGTAATCCGTATTTGCG (site TAGGATTCTCG) | 2.94
TAGGCAACATGGACCGGTTTTCCCGGTAATCCGTATTTGCA (site TAGGCAACTTG) | 0.0204
TAGGCATCATGGACCGGTTTTCCCGGTAATCCGTATTTGCG (site TAGGAATCTCG) | 0
